The structures appear in SMILES notation.

Test [1] concerns E. coli strain TG1. Put plainly: MIC of purine base analogues on M9 glucose minimal agar plates, parental strain. The test is classed as cell-based. The note with it: Escherichia coli, 10^5 to 10^6 cells spotted, growth after 44 h at 37° C. The procedure: (§1) The minimal inhibitory concentrations (MIC) of purine base analogues for the strain TG1::PnlpD-yeaS and the parental strain TG1 were determined on M9 glucose minimal agar plates containing graded concentrations of inhibitors. The plates were spotted with 10^5 to 10^6 cells from an overnight culture grown in a minimal medium. The growth was estimated after 44 h incubation at 37° C.

In test [2] the test system is E. coli strain TG1::PnlpD-yeaS. In words: MIC of purine base analogues on M9 glucose minimal agar plates, yeaS-overexpressing strain. The following applies: Escherichia coli, 44 h, read-out: MIC for E. coli strain TG1::PnlpD-yeaS. The test is classed as cell-based. The procedure: as §1

Turning to `Nc1ncnc2nn[nH]c12` [8-azaadenine], the MIC in test [1] is 100 µg/mL; in test [2], 250 µg/mL.
On to `Sc1ncnc2nc[nH]c12` [6-mercaptopurine], for which the minimal inhibitory concentration (MIC) is 50 µg/mL in test [1] and 150 µg/mL in test [2].
Turning to `Nc1nc2nc[nH]c2c(=S)[nH]1` [6-thioguanine], the MIC amounted to 30 µg/mL in test [1] and 450 µg/mL in test [2].
Taken in the same sequence, the figures for `Nc1nc(N)c2[nH]cnc2n1` [2,6-diaminopurine] were 200 µg/mL and 600 µg/mL.
